This is an account of results in PubChem BioAssay (NCI).

Structures are written as SMILES.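 Cultured in 96-well plates, cells were exposed to test compound for 48 hours across five concentrations. GI50: concentration for 50% inhibition of growth. TGI is the concentration that stops growth completely.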

The subject of the first assay is CCRF-CEM leukemia. The experiment in a line: NCI-60 cell line screen, 48 h.
In the case of `CCOC(=O)N1CCN(CCCCCOc2ccccc2C2CCCCC2)CC1`, the GI50 was 4.42 µM and the TGI worked out at 18.4 µM.
For `CC(C)(C)NCC(COc1ccc([N+](=O)[O-])cc1)OP(c1ccccc1)c1ccccc1` (stereo not given), the TGI came out at 79.2 µM.
In the case of `CCNCCNc1cc(-c2ccc(C#N)cc2)c(C#N)c2nc3ccccc3n12`, the GI50 was 2.49 µM and the TGI was 9.9 µM.
`Cc1cccc(C)c1N1C(=O)C(=O)C(c2nc3ccccc3s2)C(=Nc2cccc3c(=O)[nH][nH]c(=O)c23)C1=O` (stereo not given) yielded a TGI of more than 100 µM.
`Cn1c(=O)nc2n(-c3ccc(Cl)c(C(F)(F)F)c3)c3ccccc3nc-2c1=O` displayed a TGI of more than 100 µM.

The next assay deals with UO-31 renal. The experiment in a line: NCI-60 cell line screen, 48 h.
In the case of `O=C(/C=C/c1cccc(O)c1)c1cccc(-n2cc(-c3ccc4ccccc4c3)[nH]c2=O)c1`, the GI50 is 1.26 µM and the TGI was found to be 2.64 µM.
The matching figures for `c1cnn2ncc(-c3ccnc(Nc4ccc5c(c4)OCCO5)n3)c2c1`: 0.0917 µM and more than 25 µM.
`COc1ccc2[nH]c(-c3ccc(O)cc3)cc(=O)c2c1`: the TGI was found to be 98.2 µM.
Still for that read-out and setting: as for `Cc1cc(C)n(C2=NS(=O)(=O)c3ccccc3N2C)n1`, the figure is more than 100 µM; as for `COc1ccc2c(NCCCCCCNc3c4ccccc4nc4cc(OC)ccc34)c3ccccc3nc2c1`, 37.5 µM.
`COc1cccc2c(=O)c3c(sc12)c(NCCCNCCO)nc1ccccc13`: the GI50 was 1.03 µM and the TGI turned out to be 2.28 µM.
With `O=C(O)c1ccccc1C(=O)c1ccc2c(c1)Cc1ccccc1-2`, the TGI is more than 100 µM.
Same read-out and setting: as for `C=CC1=C(C)C2=NC1=CC1=NC(=CC3=C(C)C4=C(O)[C@H](C(=O)OC)C(=C5NC(=C2)[C@@H](C)[C@@H]5CCC(=O)O)C4=N3)C(CC)=C1C`, the figure is 11.7 µM.
In the case of `O=C1/C(=C/c2ccc([N+](=O)[O-])cc2)COc2ccc(O)cc21`, the GI50 is 1.45 µM and the TGI stood at 3.6 µM.
`CN1c2ccccc2SC2C(c3ccccc3)=NOC21` (stereo not given): the TGI is more than 100 µM.
`O=[N+]([O-])c1ccc(-c2cc3c(Nc4ccc(Cl)c(C(F)(F)F)c4)ncnc3s2)cc1`: the GI50 is 1.13 µM and the TGI is more than 26.7 µM.
In the case of `O=C1c2ccccc2-c2c1c1ccccc1c(=O)n2CCNCCn1c2c(c3ccccc3c1=O)C(=O)c1ccccc1-2`, the GI50 is more than 25 µM and the TGI was more than 25 µM.
`CC(C)(C)NCC(COc1ccc([N+](=O)[O-])cc1)OP(c1ccccc1)c1ccccc1` (stereo not given) came in with a TGI of more than 100 µM.
For the molecule `CCNCCNc1cc(-c2ccc(C#N)cc2)c(C#N)c2nc3ccccc3n12`, the GI50 was 1.62 µM and the TGI came out at 3.1 µM.
`Cc1cccc(C)c1N1C(=O)C(=O)C(c2nc3ccccc3s2)C(=Nc2cccc3c(=O)[nH][nH]c(=O)c23)C1=O` (stereo not given) yielded a TGI of more than 100 µM.
For `[2H]c1nc(=Nc2cc(NC(=O)C=C)c(N(C)CCN(C)C)cc2OC)[nH]c(-c2cn(C([2H])([2H])[2H])c3ccccc23)c1[2H]`, the GI50 is 0.943 µM and the TGI worked out at 2.25 µM.
The molecule `Cn1c(=O)nc2n(-c3ccc(Cl)c(C(F)(F)F)c3)c3ccccc3nc-2c1=O` gave a TGI of more than 100 µM.

Another assay has as its system SF-295 CNS. The experiment in a line: NCI-60 cell line screen, 48 h.
`O=C(Cl)C1=C(c2ccccc2)C1c1ccccc1` (stereo not given) returned a TGI of more than 100 µM.
For the molecule `O=C(/C=C/c1cccc(O)c1)c1cccc(-n2cc(-c3ccc4ccccc4c3)[nH]c2=O)c1`, the GI50 was 1.44 µM and the TGI worked out at 3.63 µM.
The like results for `c1cnn2ncc(-c3ccnc(Nc4ccc5c(c4)OCCO5)n3)c2c1` were, in that order, 0.0799 µM and 0.987 µM.
The molecule `COc1ccc2[nH]c(-c3ccc(O)cc3)cc(=O)c2c1` gave a TGI of 6.71 µM.
The same measure, in the same setting: the same measure for `Cc1cc(C)n(C2=NS(=O)(=O)c3ccccc3N2C)n1`: more than 100 µM; for `COc1ccc2c(NCCCCCCNc3c4ccccc4nc4cc(OC)ccc34)c3ccccc3nc2c1`: 2.04 µM.
With `COc1cccc2c(=O)c3c(sc12)c(NCCCNCCO)nc1ccccc13`, the GI50 was 1.71 µM and the TGI amounted to 3.24 µM.
Take `O=C(O)c1ccccc1C(=O)c1ccc2c(c1)Cc1ccccc1-2`: the TGI was more than 100 µM.
The same measure, in the same setting: as for `C=CC1=C(C)C2=NC1=CC1=NC(=CC3=C(C)C4=C(O)[C@H](C(=O)OC)C(=C5NC(=C2)[C@@H](C)[C@@H]5CCC(=O)O)C4=N3)C(CC)=C1C`, the figure is 6.01 µM.
Consider `CSc1ccc(N(C)c2nc(C)nc3c2CCC3)cc1`, for which the GI50 was less than 0.01 µM and the TGI was determined as 12.2 µM.
On to `O=C1/C(=C/c2ccc([N+](=O)[O-])cc2)COc2ccc(O)cc21`, for which the GI50 was more than 100 µM and the TGI was more than 100 µM.
On to `CN1c2ccccc2SC2C(c3ccccc3)=NOC21` (stereo not given), for which the TGI is more than 100 µM.
Regarding `O=[N+]([O-])c1ccc(-c2cc3c(Nc4ccc(Cl)c(C(F)(F)F)c4)ncnc3s2)cc1`, the GI50 is 1.21 µM and the TGI worked out at 6.75 µM.
The like results for `CCOC(=O)N1CCN(CCCCCOc2ccccc2C2CCCCC2)CC1` were, in that order, 2.65 µM and 13.9 µM.
Turning to `O=C1c2ccccc2-c2c1c1ccccc1c(=O)n2CCNCCn1c2c(c3ccccc3c1=O)C(=O)c1ccccc1-2`, the GI50 was more than 25 µM and the TGI is more than 25 µM.
`CC(C)(C)NCC(COc1ccc([N+](=O)[O-])cc1)OP(c1ccccc1)c1ccccc1` (stereo not given) showed a TGI of more than 100 µM.
As to `CCNCCNc1cc(-c2ccc(C#N)cc2)c(C#N)c2nc3ccccc3n12`, the GI50 is 1.79 µM and the TGI was determined as 3.6 µM.
`Cc1cccc(C)c1N1C(=O)C(=O)C(c2nc3ccccc3s2)C(=Nc2cccc3c(=O)[nH][nH]c(=O)c23)C1=O` (stereo not given) displayed a TGI of more than 100 µM.
Regarding `[2H]c1nc(=Nc2cc(NC(=O)C=C)c(N(C)CCN(C)C)cc2OC)[nH]c(-c2cn(C([2H])([2H])[2H])c3ccccc23)c1[2H]`, the GI50 was 1.97 µM and the TGI is 4.5 µM.
`Cn1c(=O)nc2n(-c3ccc(Cl)c(C(F)(F)F)c3)c3ccccc3nc-2c1=O` registered a TGI of more than 100 µM.

The test system of the next assay is SNB-19 CNS. Put plainly: NCI-60 cell line screen, 48 h.
The molecule `O=C(Cl)C1=C(c2ccccc2)C1c1ccccc1` (stereo not given) showed a TGI of more than 100 µM.
Turning to `O=C(/C=C/c1cccc(O)c1)c1cccc(-n2cc(-c3ccc4ccccc4c3)[nH]c2=O)c1`, the GI50 was 1.32 µM and the TGI came out at 4.13 µM.
